Values of other authors as cited in patent US6916479B2, “Compositions containing an antifungal and a phospholipid” (Janssen Pharmaceutica N.V., priority 1997, dated 2005).

Settings: prior art medicated shampoo

Structure (SMILES): CC(=O)N1CCN(c2ccc(OCC3COC(Cn4ccnc4)(c4ccc(Cl)cc4Cl)O3)cc2)CC1 (centres unmarked) [ketoconazole]
- number of patients not responding to particular medicated shampoo: up to 30%

Structure (SMILES): S=[Se]=S [selenium sulfide]
- number of patients not responding to particular medicated shampoo: up to 40%
